In patent US20260015350A1, “AZAQUINAZOLINE PAN-KRAS INHIBITORS” (Mirati Therapeutics, Inc., priority 2022, published 2026):

Experiments:
[1] = system: KRas-mediated phosphorylation of ERK in H727 cells; test: Inhibition of KRas-mediated phosphorylation of ERK (Cisbio HTRF pERK), H727 cells; format: cell-based; conditions: Homo sapiens; for IC50: NCI-H727, H727 cells, HTRF pERK; for inhibition at 0.1 µM: NCI-H727, 3 h, single point, 100 nM compound, 3 hrs, H727 cells
How it was run: (§1)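 Following a 3-hr exposure of cells to serially diluted compound (from 10 uM, 3-fold, 10 doses), cold lysis for 40 mins preceded a 2-hr room-temperature HTRF immunoassay for phosphorylated ERK.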

[2] = system: KRas-mediated phosphorylation of ERK in HCT116 cells; test: Inhibition of KRas-mediated phosphorylation of ERK (Cisbio HTRF pERK), HCT116 cells; format: cell-based; conditions: Homo sapiens; for inhibition at 0.1 µM: HCT-116, 3 h, single point, 100 nM compound, 3 hrs
How it was run: (§2)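 Each compound was tested at 10 concentrations, threefold apart with 10 uM the highest, for 3 hrs on 6,000 seeded cells; final DMSO was 0.8% and Trametinib (0.2 uM) served as Min control. Lysed cells were analysed for pERK by HTRF.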

[3] = system: KRas-mediated phosphorylation of ERK in H358 cells; test: Inhibition of KRas-mediated phosphorylation of ERK (Cisbio HTRF pERK), H358 cells; format: cell-based; conditions: Homo sapiens; for inhibition at 0.1 µM: NCI-H358, 3 h, single point, 100 nM compound, 3 hrs
Method: Inhibition of KRas Phosphorylation of ERK (HTRF) by Exemplary Compounds of Formula (I) Cisbio HTRF Advanced PERK Assay Catalog #64[…] […] Add 10 mL of media to stop trypsinizing. Pipette the cells into a conical bottom 50 mL centrifuge tube and centrifuge 5 min×1000 rpm. […] Re-suspend the cell pellet in media, take a cell count, and then adjust the cell density using fresh media. […] Seed 6,000 cells into cell culture plate with 50 μL media. […] Use Tecan to complete the compound addition. Compounds start from 10 uM top, 3-fold dilution, and 10 doses. The final DMSO concentration is 0.8%. Dispensed 0.2 uM Trametinib as Min control. […] Incubate cell plate for 3 hrs in the incubator. […] Dilute 1 volume of 4× lysis buffer with 3 volumes of deionized water. […] Keep lysis buffer on the ice. […] At the end of the compound treatment, flick-off the media. […] Add 35 μL of lysis buffer per well using a Multidrop Combi. Then place on a plate agitator shaking at 300 rpm at 4° C. for 40 mins. […] Make up the HTRF antibody buffer. For each assay plate, mix 50 μL of d2-conjugate antibody with 950 μL of detection buffer. Similarly, mix 50 μL of Cryptate antibody with 950 μL of detection buffer. Then mix the two diluted antibodies together. […] Dispense 3.4 μL the antibody buffer to wells of an empty assay plate. Seal the plate and centrifuge plate 30 sec×1000 rpm. […] At the end of the 4° C. lysis, centrifuge the lysate plates 3 mins×1500 rpm. […] Use the Bravo to transfer 13.6 μL of lysate from cell culture plate to assay plate. Then incubate assay plate for 2 hrs at room temperature. 8. At the end of incubation, read plate on the Envision after centrifuging plate 30 sec×1000 rpm.

[4] = system: KRas-mediated phosphorylation of ERK in H460 cells; test: Inhibition of KRas-mediated phosphorylation of ERK (Cisbio HTRF pERK), H460 cells; format: cell-based; conditions: Homo sapiens; for inhibition at 0.1 µM: NCI-H460, 3 h, single point, 100 nM compound, 3 hrs
How it was run: as §1

[5] = target: T1, KRas^G12V (Homo sapiens, UniProt P01116, G12V); test: KRas binding assay (TR-FRET tracer displacement), KRas G12V
T1 construct: Biotinylated KRas (corresponding to amino acids 1-169, produced at Accelegan Inc.); biotin (biotinylated); purchased Accelegan Inc
T1 sequence (P01116 1-169 isoform P01116-2 G12V): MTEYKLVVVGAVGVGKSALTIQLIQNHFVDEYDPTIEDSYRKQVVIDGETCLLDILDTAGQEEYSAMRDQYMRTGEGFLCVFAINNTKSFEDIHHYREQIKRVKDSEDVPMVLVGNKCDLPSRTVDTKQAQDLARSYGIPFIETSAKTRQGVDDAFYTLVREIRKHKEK

[6] = target: T2, KRas^G12R (Homo sapiens, UniProt P01116, G12R); test: KRas binding assay (TR-FRET tracer displacement), KRas G12R
T2 construct: Biotinylated KRas (corresponding to amino acids 1-169, produced at Accelegan Inc.); biotin (biotinylated); purchased Accelegan Inc
T2 sequence (P01116 1-169 isoform P01116-2 G12R): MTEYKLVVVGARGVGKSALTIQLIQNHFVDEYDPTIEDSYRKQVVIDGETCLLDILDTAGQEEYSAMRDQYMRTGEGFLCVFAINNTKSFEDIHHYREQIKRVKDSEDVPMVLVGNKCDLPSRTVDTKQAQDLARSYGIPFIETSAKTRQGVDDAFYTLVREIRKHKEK

[7] = target: T3, KRas^G12D (Homo sapiens, UniProt P01116, G12D); test: KRas binding assay (TR-FRET tracer displacement), KRas G12D
T3 construct: Biotinylated KRas (corresponding to amino acids 1-169, produced at Accelegan Inc.); biotin (biotinylated); purchased Accelegan Inc
T3 sequence (P01116 1-169 isoform P01116-2 G12D): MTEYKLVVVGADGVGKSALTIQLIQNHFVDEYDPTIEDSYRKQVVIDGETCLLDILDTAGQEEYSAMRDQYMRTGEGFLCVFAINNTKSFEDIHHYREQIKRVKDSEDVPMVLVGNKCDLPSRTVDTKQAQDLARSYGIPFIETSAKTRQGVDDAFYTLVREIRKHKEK

[8] = system: KRas-mediated phosphorylation of ERK in AsPC-1 cells; test: Inhibition of KRas-mediated phosphorylation of ERK (Cisbio HTRF pERK), AsPC-1 cells; format: cell-based; conditions: Homo sapiens; for IC50: ASPC1, AsPC-1 cells, HTRF pERK; for inhibition at 0.1 µM: ASPC1, 3 h, single point, 100 nM compound, 3 hrs, AsPC-1 cells
How it was run: as §1

[9] = system: KRas-mediated phosphorylation of ERK in A549 cells; test: Inhibition of KRas-mediated phosphorylation of ERK (Cisbio HTRF pERK), A549 cells; format: cell-based; conditions: Homo sapiens; for inhibition at 0.1 µM: A549, 3 h, single point, 100 nM compound, 3 hrs
How it was run: as §2

SMILES	IC50 [1] [nM]	IC50 [5] [nM]	IC50 [6] [nM]	IC50 [7] [nM]	IC50 [8] [nM]	IC50 ([2]; HCT-116, HTRF pERK) [nM]	IC50 ([3]; NCI-H358, HTRF pERK) [nM]	IC50 ([4]; NCI-H460, HTRF pERK) [nM]	IC50 ([9]; HTRF pERK) [nM]	inhibition at 0.1 µM [2] [%]	inhibition at 0.1 µM [3] [%]	inhibition at 0.1 µM [4] [%]	inhibition at 0.1 µM [9] [%]	inhibition at 0.1 µM [1] [%]	inhibition at 0.1 µM [8] [%]
CCc1c(F)ccc2cc(O)cc(-c3ncc4c(N5C[C@@H]6C[C@]6(c6nc(C)no6)C5)nc(OC[C@@]56CCCN5C[C@H](F)C6)nc4c3F)c12 [Example 607, 5-ethyl-6-fluoro-4-(8-fluoro-2-(((2R,7aS)-2-fluorotetrahydro-1H-pyrrolizin-7a(5H)-yl)methoxy)-4-((1R,5R)-1-(3-methyl-1,2,4-oxadiazol-5-yl)-3-azabicyclo[3.1.0]hexan-3-yl)pyrido[4,3-d]pyrimidin-7-yl)naphthalen-2-ol]	1770	53	99	151	1740	–	–	–	–	24	9	62	34	–	–
CCc1c(F)ccc2cc(O)cc(-c3ncc4c(N5CCCC(Cn6cccn6)C5)nc(OC[C@@]56CCCN5C[C@H](F)C6)nc4c3F)c12 (stereo partly drawn) [Example 610, 4-(4-(3-((1H-pyrazol-1-yl)methyl)piperidin-1-yl)-8-fluoro-2-(((2R,7aS)-2-fluorotetrahydro-1H-pyrrolizin-7a(5H)-yl)methoxy)pyrido[4,3-d]pyrimidin-7-yl)-5-ethyl-6-fluoronaphthalen-2-ol]	660	28	48	66	884	1010	662	256	1300	-5	1	31	10	–	–
CCc1c(F)ccc2cc(O)cc(-c3ncc4c(NCc5cc(C(=O)N(C)C)nn5CC#N)nc(OC[C@@]56CCCN5C[C@H](F)C6)nc4c3F)c12 [Example 657, 1-(cyanomethyl)-5-(((7-(8-ethyl-7-fluoro-3-hydroxynaphthalen-1-yl)-8-fluoro-2-(((2R,7aS)-2-fluorotetrahydro-1H-pyrrolizin-7a(5H)-yl)methoxy)pyrido[4,3-d]pyrimidin-4-yl)amino)methyl)-N,N-dimethyl-1H-pyrazole-3-carboxamide]	2660	< 2	< 2	4	–	–	–	–	–	-9	27	-18	-2	19	-24
CCc1c(F)ccc2cc(O)cc(-c3ncc4c(N5CCCn6nc(S(=O)(=O)NC)cc6C5)nc(OC[C@@]56CCCN5C[C@H](F)C6)nc4c3F)c12 [Example 676, 5-(7-(8-ethyl-7-fluoro-3-hydroxynaphthalen-1-yl)-8-fluoro-2-(((2R,7aS)-2-fluorohexahydro-1H-pyrrolizin-7a-yl)methoxy)pyrido[4,3-d]pyrimidin-4-yl)-N-methyl-5,6,7,8-tetrahydro-4H-pyrazolo[1,5-a][1,4]diazepine-2-sulfonamide]	5130	6	5	2	996	–	–	–	–	4	-4	11	19	–	–
CCc1c(F)ccc2cc(O)cc(-c3ncc4c(N5CCC[C@@](C)(O)C5)nc(OCC56CNCC5C6)nc4c3F)c12 (stereo partly drawn) [Example 695, (3R)-1-(2-((3-azabicyclo[3.1.0]hexan-1-yl)methoxy)-7-(8-ethyl-7-fluoro-3-hydroxynaphthalen-1-yl)-8-fluoropyrido[4,3-d]pyrimidin-4-yl)-3-methylpiperidin-3-ol]	2690	5	8	4	1110	–	–	–	–	13	-1	-2	16	–	–
CCc1c(F)ccc2cc(O)cc(-c3ncc4c(N5CCC[C@@](C)(O)C5)nc(OCC56CNCCC5C6)nc4c3F)c12 (stereo partly drawn) [Example 697, (3R)-1-(2-((3-azabicyclo[4.1.0]heptan-1-yl)methoxy)-7-(8-ethyl-7-fluoro-3-hydroxynaphthalen-1-yl)-8-fluoropyrido[4,3-d]pyrimidin-4-yl)-3-methylpiperidin-3-ol]	4750	6	7	4	1860	–	–	–	–	1	5	19	-4	–	–

More lines, main results first:

IC50 [1] [nM]	IC50 [5] [nM]	IC50 [6] [nM]	IC50 [7] [nM]	IC50 [8] [nM]	IC50 ([2]; HCT-116, HTRF pERK) [nM]	IC50 ([3]; NCI-H358, HTRF pERK) [nM]	IC50 ([4]; NCI-H460, HTRF pERK) [nM]	IC50 ([9]; HTRF pERK) [nM]	SMILES	inhibition at 0.1 µM [2] [%]	inhibition at 0.1 µM [3] [%]	inhibition at 0.1 µM [4] [%]	inhibition at 0.1 µM [9] [%]	inhibition at 0.1 µM [1] [%]	inhibition at 0.1 µM [8] [%]
476	5	9	4	101	–	–	–	–	CCc1c(F)ccc2cc(O)cc(-c3ncc4c(N5CCC[C@@](C)(O)C5)nc(OCC56CC5CCN(C)C6)nc4c3F)c12 (stereo partly drawn) [Example 701, (3R)-1-(7-(8-ethyl-7-fluoro-3-hydroxynaphthalen-1-yl)-8-fluoro-2-((3-methyl-3-azabicyclo[4.1.0]heptan-1-yl)methoxy)pyrido[4,3-d]pyrimidin-4-yl)-3-methylpiperidin-3-ol]	0	6	15	20	–	–
982	7	14	5	342	–	–	–	–	CCc1c(F)ccc2cc(O)cc(-c3ncc4c(N5CCC[C@@](C)(O)C5)nc(OCC5(CN(C)C)CC5CC)nc4c3F)c12 (stereo partly drawn) [Example 703, (3R)-1-(2-((1-((dimethylamino)methyl)-2-ethylcyclopropyl)methoxy)-7-(8-ethyl-7-fluoro-3-hydroxynaphthalen-1-yl)-8-fluoropyrido[4,3-d]pyrimidin-4-yl)-3-methylpiperidin-3-ol]	0	-10	4	47	–	–
223	5	11	5	53	–	–	–	–	CCc1c(F)ccc2cc(O)cc(-c3ncc4c(N5CCC[C@@](C)(O)C5)nc(OCC5(CN(C)C)CC5(C)C)nc4c3F)c12 (stereo partly drawn) [Example 704, (3R)-1-(2-((1-((dimethylamino)methyl)-2,2-dimethylcyclopropyl)methoxy)-7-(8-ethyl-7-fluoro-3-hydroxynaphthalen-1-yl)-8-fluoropyrido[4,3-d]pyrimidin-4-yl)-3-methylpiperidin-3-ol]	19	47	40	26	21	25
1220	13	30	12	598	–	–	–	–	CCc1c(F)ccc2cc(O)cc(-c3ncc4c(N5CCC[C@@](C)(O)C5)nc(OCC5(CN(C)C)CC56CCC6)nc4c3F)c12 (stereo partly drawn) [Example 705, (3R)-1-[2-[[2-[(dimethylamino)methyl]spiro[2.3]hexan-2-yl]methoxy]-7-(8-ethyl-7-fluoro-3-hydroxy-1-naphthyl)-8-fluoro-pyrido[4,3-d]pyrimidin-4-yl]-3-methyl-piperidin-3-ol]	-3	34	0	29	3	6
